Assay results reported in patent US11020405B2, “Method for prevention or treatment of diabetic complications” (KANGWON NATIONAL UNIVERSITY UNIVERSITY-INDUSTRY COOPERATION …, priority 2017, dated 2021).

Tests used:
[1] = tested on: lungs of diabetic mice; assay: Hyperglycemia-induced pulmonary vascular leakage in diabetic mice (FITC-dextran); format: in vivo, C57BL/6 mice; conditions: 10 mg/kg midazolam intraperitoneal daily for 2 days (FIG. 21)
Method: FIGS. 21A and 21B show the preventive effects of midazolam against hyperglycemia-induced pulmonary vascular leakage in diabetic mice. Six-week-old male C57BL/6 mice were administered with streptozotocin (150 mg/kg body weight) to give diabetic mouse models. Two weeks after streptozotocin injection, diabetic mice were administered 10 mg/kg midazolam by intraperitoneal injection daily for 2 days, and vascular leakage was investigated. The body weight of mice were measure in normal (19.9±0.3 g), diabetic (17.7±0.3 g), and midazolam supplemented diabetic mice (17.6±0.3 g). Blood glucose levels were also monitored in normal (123.5±6.5 mg/dL), diabetic (505.0±89.0 mg/dL), and midazolam supplemented diabetic mice (500.3±63.3 mg/dL). The mice were anesthetized with 3% isoflurane, and 1.25 mg of FITC-dextran was injected into the right ventricle of each mouse and allowed to circulate for 5 min. The lungs were dissected, fixed, and embedded in OCT compound. Cryosections of lungs were stained with isolectin B4 and DAPI. Representative images of vascular leakage in lungs are shown in additional FIG. 21A. Scale bars, 100 μm. The results of vascular leakage quantitatively analyzed by measuring the fluorescence intensity of FITC-dextran in the lungs are shown in additional FIG. 21B (n=4 for normal and diabetic, n=6 for diabetic+Midazolam).

[2] = tested on: human retinal endothelial cells (HRECs); assay: Analysis of intracellular Ca^2+ (Fluo4-AM, confocal microscopy); format: cell-based
Method: Purchased from Applied Cell Biology Research Institute (Cell Systems, Kirkland, Wash.), human retinal endothelial cells (HRECs) were cultured in an M19 medium, containing 20% FBS, 3 ng/mL bFGF, 5 U/mL heparin, 100 U/mL penicillin and […], in a 2% gelatin-coated plate.
Before the following Test Examples 2 to 7, the HRECs were cultured for 6 hr in a medium containing 1% FBS and an antibiotic agent, thus preparing HRECs of Test Example 1.
With reference to FIG. 2A, the HRECs of Test Example 1 were subjected to the respective treatments below, stained with 2 μM Fluo4-AM at 37° C. for 30 min and then measured at time intervals of 10 sec using confocal microscopy (FV-300, Olympus, Tokyo, Japan).
With reference to FIG. 2B, the HRECs of Test Example 1 were subjected to the respective treatments below, cultured for 30 min, stained with 2 μM Fluo4-AM at 37° C. for 30 min and then measured at time intervals of 10 sec using confocal microscopy.

[3] = tested on: retinal vessels of diabetic mice; assay: Fluorescein angiography for mouse model (retinal vascular leakage); format: in vivo, C57BL/6 mice; conditions: intravitreal 2 μL of 2 mM midazolam, 2 μM cystamine or 500 mM MDC (FIGS. 16, 17)
[4] = tested on: aortic endothelium of diabetic mice; assay: Hyperglycemia-induced endothelial apoptosis in aortic endothelium of diabetic mice (TUNEL); format: in vivo, C57BL/6 mice; conditions: midazolam 10 mg/kg intraperitoneal daily for 14 days (FIG. 19)
Method: FIGS. 19A and 19B show the preventive effects of midazolam against hyperglycemia-induced endothelial apoptosis in the aortic endothelium of diabetic mice. Six-week-old male C57BL/6 mice were administered with streptozotocin (150 mg/kg body weight) to give diabetic mouse models. One week after streptozotocin injection, diabetic mice were administered midazolam (10 mg/kg) by intraperitoneal injection daily for 14 days. The body weight of mice were measure in normal (20.7±0.1 g), diabetic (17.1±0.1 g), and midazolam supplemented diabetic mice (17.0±0.3 g). Blood glucose levels were also monitored in normal (124.0±12.0 mg/dL), diabetic (509.0±1.0 mg/dL), and midazolam supplemented diabetic mice (515.7±3.4 mg/dL). Aorta of mice were dissected and cut longitudinally to expose the endothelium. And then aortic segments were fixed for 15 min with 1% (w/v) paraformaldehyde in PBS, followed by treatment for 30 min with 70% (v/v) ethanol on ice. Apoptotic cells were stained by terminal deoxynucleotidyl transferase dUTP nick end labeling (TUNEL) with nuclear counterstaining with DAPI and visualized by confocal microscopy in the aortic endothelium. […] The results of endothelial apoptosis quantitatively analyzed by measurement of TUNEL staining in the aorta are shown in additional FIG. 19B (n=4 for normal and diabetic, n=6 for diabetic+Midazolam).

[5] = tested on: kidneys of diabetic mice; assay: Hyperglycemia-induced renal vascular leakage in diabetic mice (FITC-dextran); format: in vivo, C57BL/6 mice; conditions: 10 mg/kg midazolam intraperitoneal daily for 2 days (FIG. 20)
Method: FIGS. 20A and 20B show the preventive effects of midazolam against hyperglycemia-induced renal vascular leakage in diabetic mice. Six-week-old male C57BL/6 mice were administered with streptozotocin (150 mg/kg body weight) to give diabetic mouse models. Two weeks after streptozotocin injection, diabetic mice were administered 10 mg/kg midazolam by intraperitoneal injection daily for 2 days, and vascular leakage was investigated. The body weight of mice were measure in normal (19.9±0.3 g), diabetic (17.7±0.3 g), and midazolam supplemented diabetic mice (17.7±0.3 g). Blood glucose levels were also monitored in normal (123.5±6.5 mg/dL), diabetic (505.0±89.0 mg/dL), and midazolam supplemented diabetic mice (500.3±63.3 mg/dL). The mice were anesthetized with 3% isoflurane, and 1.25 mg of FITC-dextran was injected into the right ventricle of each mouse and allowed to circulate for 5 min. The kidneys were dissected, fixed, and embedded in OCT compound. Cryosections of kidneys were stained with nuclear counterstaining with DAPI. Representative images of vascular leakage in kidneys are shown in additional FIG. 20A. Scale bars, 100 μm. The results of vascular leakage quantitatively analyzed by measuring the fluorescence intensity of FITC-dextran in the kidneys are shown in additional FIG. 20B. (n=4 for normal and diabetic, n=6 for diabetic+Midazolam).

With Cc1ncc2n1-c1ccc(Cl)cc1C(c1ccccc1F)=NC2 [midazolam] the “pulmonary vascular leakage (FITC-dextran extravasation)” value [1] was “blocked by midazolam administration”, the “changes in intracellular Ca^2+ (VEGF-induced)” value ([2]; 10 ng/ml VEGF and 20 μM midazolam together (FIG. 2A)) was “no significant changes in intracellular Ca^2+” and the “changes in intracellular Ca^2+ (VEGF-induced, after washing)” value ([2]; 20 μM midazolam 30 min, washing with serum-free medium, then 10 ng/ml VEGF (FIG. 2A)) was “intracellular Ca^2+ elevation was caused”. For the same molecule, the “changes in intracellular Ca^2+” value ([2]; 20 μM midazolam alone (FIG. 2A)) was “no significant changes in intracellular Ca^2+”, the “retinal vascular leakage compared to normal mice” value [3] was “vascular leakage was prevented” and the “hyperglycemia-induced endothelial apoptosis in aorta (TUNEL staining)” value [4] was “inhibited the hyperglycemia-induced apoptosis of diabetic aortas”. For the same molecule, the “renal vascular leakage (FITC-dextran extravasation)” value [5] was “blocked by midazolam administration”.
